Experimental findings from ChEMBL document CHEMBL3397016, “SAR-studies of γ-secretase modulators with PPARγ-agonistic and 5-lipoxygenase-inhibitory activity for Alzheimer's disease” (Bioorg Med Chem Lett, 2015) are described below.

The target of assay [1] is T1, Presenilin-1 (Homo sapiens, UniProt P49768). The assay is described as follows: Activation of wild-type human presenilin-1 stably overexpressed in CHO cells co-expressing wild-type human amyloid precursor protein assessed as amyloid beta 38 formation after 24 hrs by ELISA. The format is cell-based. Background: In an ELISA, binding on a coated surface is turned into a signal by an enzyme label.

The target of assay [2] is T2, Peroxisome proliferator-activated receptor gamma (Homo sapiens) (UniProt P37231).
T2 sequence (whole entry): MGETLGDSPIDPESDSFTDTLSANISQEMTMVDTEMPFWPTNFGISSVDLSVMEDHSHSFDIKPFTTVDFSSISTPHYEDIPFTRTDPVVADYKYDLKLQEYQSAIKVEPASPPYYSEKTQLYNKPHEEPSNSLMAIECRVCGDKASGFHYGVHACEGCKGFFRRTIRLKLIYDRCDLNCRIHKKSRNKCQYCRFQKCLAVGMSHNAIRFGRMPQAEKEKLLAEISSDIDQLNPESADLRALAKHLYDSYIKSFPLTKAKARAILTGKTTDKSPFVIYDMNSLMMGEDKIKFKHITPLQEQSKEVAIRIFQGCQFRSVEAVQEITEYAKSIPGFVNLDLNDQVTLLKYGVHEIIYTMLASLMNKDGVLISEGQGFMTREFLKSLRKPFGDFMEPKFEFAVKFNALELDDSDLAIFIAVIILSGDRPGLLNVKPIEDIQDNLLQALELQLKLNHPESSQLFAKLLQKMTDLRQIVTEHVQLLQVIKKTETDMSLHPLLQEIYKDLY
The assay is described as follows: Activation of human PPARgamma ligand binding domain expressed in COS7 cells by dual luciferase reporter gene assay relative to 1 uM pioglitazone. The settings on record: COS-7. The format is cell-based. (In general: In a reporter assay the amount or activity of a reporter protein is the signal.)

Assay [3] has as its target T1, Presenilin-1. The assay is described as follows: Inhibition of wild-type human presenilin-1 stably overexpressed in CHO cells co-expressing wild-type human amyloid precursor protein assessed as inhibition of amyloid beta 42 formation after 24 hrs by ELISA. The format is cell-based.
Assay [4] addresses T3, Peroxisome proliferator-activated receptor gamma (Homo sapiens, UniProt P37231).
T3 sequence (P37231 whole entry): T2 sequence (whole entry)
The assay is described as follows: Activation of human PPARgamma ligand binding domain expressed in COS7 cells by dual luciferase reporter gene assay. It counts as cell-based, COS-7.

The target of assay [5] is T4, Polyunsaturated fatty acid 5-lipoxygenase (Homo sapiens, UniProt P09917).
T4 sequence (P09917 whole entry): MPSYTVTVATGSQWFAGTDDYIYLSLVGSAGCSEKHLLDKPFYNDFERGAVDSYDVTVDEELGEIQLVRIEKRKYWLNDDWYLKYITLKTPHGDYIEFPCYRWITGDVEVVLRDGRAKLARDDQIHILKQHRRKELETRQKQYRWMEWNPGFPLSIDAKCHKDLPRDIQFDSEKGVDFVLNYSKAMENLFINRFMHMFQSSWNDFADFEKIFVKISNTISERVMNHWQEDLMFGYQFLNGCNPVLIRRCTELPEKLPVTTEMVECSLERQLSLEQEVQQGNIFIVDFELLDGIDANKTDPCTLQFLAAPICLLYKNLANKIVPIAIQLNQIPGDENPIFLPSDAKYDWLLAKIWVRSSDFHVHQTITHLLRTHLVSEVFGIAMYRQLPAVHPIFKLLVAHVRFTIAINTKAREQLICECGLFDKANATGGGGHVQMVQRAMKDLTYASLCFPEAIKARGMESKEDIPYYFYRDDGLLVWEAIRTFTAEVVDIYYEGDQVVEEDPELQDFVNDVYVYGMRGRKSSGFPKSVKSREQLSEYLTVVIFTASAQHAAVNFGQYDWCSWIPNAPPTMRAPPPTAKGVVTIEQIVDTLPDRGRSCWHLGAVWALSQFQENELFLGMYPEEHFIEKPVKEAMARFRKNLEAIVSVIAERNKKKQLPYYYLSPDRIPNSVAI
The assay is described as follows: Inhibition of 5-LO in human PMNL assessed as reduction in 5-LO product formation pre-incubated for 15 mins before addition of arachidonic acid substrate by HPLC analysis.

As a reminder, the EC50 is the concentration at which the effect is half-maximal. In general, IC50 refers to the concentration needed to halve the response being measured.

On to `CCCCC(Sc1nc(OCCC2CCCCC2)cc(OCCC2CCCCC2)n1)C(=O)O` (configuration not stated), for which, at Presenilin-1 [1], the EC50 amounted to 4.6 µM. Also, the max activation in assay [2] is 71%. The IC50 at Presenilin-1 [3] came out at 5.1 µM.

On to `CCCC/C(=C\c1cc(OCc2ccc(-c3ccccc3)cc2)ccc1OCc1ccc(C(F)(F)F)cc1)C(=O)O`, for which the values for the EC50 (at Presenilin-1 [1]; in assay [4] (cos-7)) were 3.2 µM and “Not Active”, respectively. Also, the IC50 is 11.9 µM at Presenilin-1 [3] and “Not Active” in assay [5].

For `CCCC/C(=C\c1cc(Oc2ccccc2)ccc1OCc1ccc(C(F)(F)F)cc1)C(=O)O`, the figures for the EC50 (at Presenilin-1 [1]; in assay [4] (read-out: EC50)) were 15.6 µM and 0.72 µM, respectively. Further, the max activation in assay [2] was 76%. Moreover, the figures for the IC50 (on Presenilin-1 [3]; in assay [5] (read-out: IC50)) were 14.9 µM and 2.1 µM, respectively.

`CCCCC(Sc1nc(OCCc2ccccc2)cc(OCCc2ccccc2)n1)C(=O)O` (configuration not stated): the EC50 at Presenilin-1 [1] worked out at 11.3 µM. In assay [2], this molecule registered a max activation of 61%. Also, the IC50 on Presenilin-1 [3] turned out to be 22.8 µM.

`CCCC/C(=C\c1cc(OCc2ccc(CCCC)cc2)ccc1OCc1ccc(C(F)(F)F)cc1)C(=O)O`: the EC50 at Presenilin-1 [1] was 4.4 µM; in assay [4] (cos-7), “Not Active”. The figures for the IC50 (at Presenilin-1 [3]; in assay [5]) were 4.4 µM and “Not Active”, respectively.

In the case of `CCCC/C(=C\c1cc(OCc2ccc(OCc3ccccc3)cc2)ccc1OCc1ccc(C(F)(F)F)cc1)C(=O)O`, the EC50 on Presenilin-1 [1] was 1.8 µM; in assay [4] (cos-7), “Not Active”. In addition, the IC50 was 8.5 µM at Presenilin-1 [3] and “Not Active” in assay [5].

For `CCCC/C(=C\c1cc(OCc2cccnc2)ccc1OCc1ccc(C(F)(F)F)cc1)C(=O)O`, the values for the EC50 (on Presenilin-1 [1]; in assay [4] (read-out: EC50)) were 23.2 µM and 2.56 µM, respectively. This molecule also had a max activation in assay [2] of 120%. Moreover, the 50% inhibitory concentration (IC50) at Presenilin-1 [3] was found to be 32.1 µM; in assay [5] (read-out: IC50), 2.3 µM.

With `CCCC/C(=C\c1cc(OCc2ccc(-c3csc(C)n3)cc2)ccc1OCc1ccc(C(F)(F)F)cc1)C(=O)O`, the EC50 at Presenilin-1 [1] was 2.2 µM; in assay [4] (cos-7), “Not Active”. The IC50 came out at 20.2 µM at Presenilin-1 [3] and 6.7 µM in assay [5] (read-out: IC50).
